Assay results as given in paper PMC12156367, “Synthesis and Biological Evaluation of Seco-Coumarin/Furoxan Hybrids as Potent Anti-Tumor Agents to Overcome Multidrug Resistance via Multiple Mechanisms” (Molecules, 2025).

Legend:
[1] = test system: human normal mammary epithelial cell lines MCF-10A; test: Cytotoxicity in normal mammary epithelial cells (MTT); assay type: cell-based; conditions: normal mammary epithelial cell line
Source text: (§1) The MDA-MB-468 cell line was procured from the Cell Bank of the Chinese Academy of Sciences. The MCF-7, MCF-7/ADR, MCF-10A, and MDA-MB-231 cell lines were kindly provided by Professor Xianyi Sha (Fudan University, Shanghai, China). The HUVEC cells were kindly provided by Associate Professor Hulie Zeng (Fudan University, Shanghai, China). The MDA-MB-468, MDA-MB-231, MCF-7, MCF-10A, and HUVEC cells were cultivated in DMEM (Service Biotechnology, China) supplemented with 10% FBS (Capricorn Scientific, Germany) and 1% penicillin-streptomycin (Meilunbio, Dalian, China). For the MCF-7/ADR cells, they were cultured in RPMI-1640 (Service Biotechnology, Wuhan, China), containing 10% FBS and 1% penicillin-streptomycin. […]
(§2) Following harvest during logarithmic growth, cells were plated in 96-well culture plates at an initial density of 5000 cells per well. […] The OD value at 570nm was measured using a microplate reader (Thermo Fisher, Waltham, MA, USA). Cell proliferation inhibition was determined using the following formula:Inhibition (%) = [(ODDMSO − ODcompd.)/(ODDMSO − ODblank)] × 100
(§3) GraphPad Prism software 9 was used to calculate the IC50 values. […] For instance, in the cell experiment, we recorded the cell viability values at different drug concentrations. […]

MCF-7/ADR = test: Cell apoptosis analysis (Annexin V-FITC/PI flow cytometry); assay type: cell-based, human; conditions: 9e 10 nM, control 5.53%
Procedure: MCF-7/ADR (2 × 10^5 cells/well) were plated in 6-well plates and cultured overnight. Following 24 h treatment with specified concentrations of 9e, cells were harvested and analyzed by Annexin V-FITC apoptosis detection kit (Beyotime, Shanghai, China). Cell populations were subsequently analyzed by flow cytometry (Beckman, Brea, CA, USA).

[2] = Solubility experiment (HPLC) in water/acetonitrile; assay type: physicochemical; conditions: in water/acetonitrile (table title)
Procedure: Wavelength: 254 nm; flow rate: 1.0 mL/min; column temperature: 25 °C. Mobile phase: Phase A: water, Phase B: acetonitrile (Table 5).
Compounds were dissolved in chromatographic-grade acetonitrile and diluted to concentrations of 200, 100, 50, 25, 12.5, and 6.25 µg/mL. A standard curve was plotted using the peak area under the curve (AUC) versus concentration. […] The supernatant was filtered through an ultrafiltration membrane and then subjected to HPLC analysis. The solubility of the target compound was determined by substituting the AUC of the test compound into the standard curve. Each measurement was performed in triplicate.

[3] = test system: MCF-7 (human breast cancer cell line); test: In vitro antiproliferative assay (MTT, 48 h), MCF-7; assay type: cell-based; conditions: MCF7, mean of three determinations
Source text: as §1, §2, §3

## COc1ccc(CCC(=O)c2ccc(OCCOc3no[n+]([O-])c3S(=O)(=O)c3ccccc3)cc2OC)cc1 [Compound 9e, 4-(2-(3-methoxy-4-(3-(4-methoxyphenyl)propanoyl)phenoxy)ethoxy)-3-(phenylsulfonyl)-1,2,5-oxadiazole 2-oxide]
[1]
  IC50: 13.2 µM
MCF-7/ADR
  apoptosis (Q2+Q3): 37.1%
[2]
  Solubility: 56.4 ± 5.5%
[3]
  IC50: 4.23 µM
